Source: patent publication US9433607B2, “Composition for prevention or treatment of cancer comprising N-methylenenaphtho[2,1-b]furan-2-carbohydrazide derivatives as an active ingredient” (KOREA RESEARCH INSTITUTE OF BIOSCIENCE AND BIOTECHNOLOGY, priority 2012, dated 2016)
pIC50: −log10 of the molar value. Each block holds one molecule with its values, some of them ahead of it.

Key:
[1] = test system: HeLa cell line; test: Anti-proliferative activity in HeLa cells (MTT assay); assay type: cell-based; details: HeLa cell line; for pIC50: Homo sapiens
Protocol: Particularly, HeLa cell line (ATCC, USA) was treated with the compounds of Table 1 respectively, and then IC50 (the half maximal inhibitory concentration) was investigated (Table 1).
HeLa cells were treated with 100 nM, 250 nM, 500 nM and 1 μM of ethyl(2-methyl-3{(E)-[(naphtho[2,1-b]furan-2-ylcarbonyl)hydrazono]methyl}-1H-indole-1-yl)acetate or DMSO for 4 days. Then, the cell growth was confirmed by MTT assay. All the obtained numbers were calculated by normalizing the value of Day 0. The data presents the mean value obtained from the assay performed in triplicate.
Particularly, HeLa cells were distributed in a 96-well plate at the density of 2×10^3 cells/well. The cells were treated with DMSO or the compound of the present invention, to which MTT reagent was added at the concentration of 10 μl/well. 2 hours later, OD450 was measured, which became the value of Day 0. 4 days later, MTT reagent was added thereto again. 2 hours later, OD450 was measured. The data presents the mean value obtained from the assay performed in triplicate.

[2] = test system: K562; test: Cytotoxicity MTT assay, K562; assay type: cell-based; details: Homo sapiens, 96 h, 4 days
Protocol: (§1) Particularly, K562, MCF7 (Bio-Evaluation Center, Korea Research Institute of Bioscience and Biotechnology, Korea), and the multi-drug resistant cell lines thereof, K562/ADR and MCF7/ADR (Bio-Evaluation Center, Korea Research Institute of Bioscience and Biotechnology, Korea) were cultured in microtiter plate (1-3×10^3 cells/well). Then, the cells were treated with ethyl(2-methyl-3{(E)-[(naphtho[2,1-b]furan-2-ylcarbonyl)hydrazono]methyl}-1H-indole-1-yl)acetate, doxorubicin, or taxol, followed by culture for 4 days. Cytotoxicity was investigated by MTT assay by the same manner as described in Example <1-2>. IC50 was calculated by long-dose response curve. The data presents the mean value obtained from the assay performed in triplicate (Table 3).

[3] = test system: K562/ADR; test: Cytotoxicity MTT assay, multi-drug resistant K562/ADR; assay type: cell-based; details: for pIC50: Homo sapiens, 96 h, K562/ADR, MTT, 4 days; for resistance factor (number in the bracket): ratio of IC50 of K562/ADR to IC50 of parent K562
Protocol: as §1
(§2) The resistance factor of the multi-drug resistant cell line indicates the ratio of IC50 of the multi-drug resistant cell line to IC50 of the parent cell line showing no resistance, which was presented as a number in the bracket.

[4] = test system: MCF7; test: Cytotoxicity MTT assay, MCF7; assay type: cell-based; details: Homo sapiens, 96 h, 4 days
Protocol: as §1

[5] = test system: MCF7/ADR; test: Cytotoxicity MTT assay, multi-drug resistant MCF7/ADR; assay type: cell-based; details: for pIC50: Homo sapiens, NCI/ADR-RES, 96 h, MCF7/ADR, MTT, 4 days; for resistance factor (number in the bracket): ratio of IC50 of MCF7/ADR to IC50 of parent MCF7
Protocol: as §1, §2

[6] = test system: HeLa cells; test: Immunofluorescence of intracellular microtubules and chromosomes; assay type: cell-based; details: 17 hours, Taxol 100 μM, nocodazole 200 ng/ml, compound 5 μM
Protocol: To investigate the effect of ethyl(2-methyl-3{(E)-[(naphtho[2,1-b]furan-2-ylcarbonyl)hydrazono]methyl}-1H-indole-1-yl)acetate on intracellular microtubules, HeLa cells were treated with DMSO, Taxol (100 μM), nocodazole (200 ng/ml), or ethyl(2-methyl-3{(E)-[(naphtho[2,1-b]furan-2-ylcarbonyl)hydrazono]methyl}-1H-indole-1-yl)acetate (5 μM) for 17 hours. After fixing the cells, the cells were immuno-stained with Alexa Fluor 488-conjugated anti-tubulin antibody and Hoechst 33342 to confirm α-tubulin and chromosomes.

[7] = test system: FVB/N mouse induced with skin tumor; test: DMBA/TPA induced skin tumor model; assay type: in vivo
Protocol: In this invention, the male FVB/N mice (6-7 weeks, Jackson Laboratory, USA) were raised under the condition of 12 hr bright lighting/12 hr dim lighting at the temperature of 24±2° C. with the humidity of 50±10% with water and feed provided freely. The care and process of the test animal was reviewed and approved by Institutional Animal Care and Use Committee (IACUC), Korea Research Institute of Bioscience and Biotechnology (KRIBB). DMBA (7,12-dimethylbenz[α]anthracene), TPA (12-O-tetradecanoylphorbol-13-acetate) and cholchicine were purchased from Sigma-Aldrich, and the synthesized ethyl(2-methyl-3{(E)-[(naphtho[2,1-b]furan-2-ylcarbonyl)hydrazono]methyl}-1H-indole-1-yl)acetate was provided from Dr. Thimmegowda.
Particularly, the dorsal skin of the said FVB/N mouse was shaved two days before the experiment. 100 μg of DMBA was added to 0.2 ml of acetone, which was treated to the mouse by single-local administration for 1 week to induce tumor. 5 fig of TPA was added to 0.2 ml of acetone, which was treated to the above mouse induced with tumor […] for 15 weeks to grow the tumor. 500 nM of ethyl(2-methyl-3{(E)-[(naphtho[2,1-b]furan-2-ylcarbonyl)hydrazono]methyl}-1H-indole-1-yl)acetate or cholchicine was dissolved in 0.2 ml of acetone, which was treated to the above mouse locally for 30 minutes each time for 15 weeks. Each group was composed of at least 10 mice and total 4 groups were prepared:
Group 1: DMBA and acetone treated group (negative control)
Group 2: DMBA and TPA treated group (positive control)
Group 3: DMBA/TPA and cholchicine treated group (experimental group 1)
Group 4: DMBA/TPA and ethyl(2-methyl-3{(E)-[(naphtho[2,1-b]furan-2-ylcarbonyl)hydrazono]methyl}-1H-indole-1-yl)acetate treated group (experimental group 2).
In addition, skin tumor such as papilloma was checked every week during the whole period of experiment. The tumor in the size of at least 2 mm was judged as positive. 15 weeks later, the mice were sacrificed with CO2. The skin tumor was extracted for histopathological/biochemical analysis.
The average number and the volume of tumor in each group were calculated.
Each mouse group was treated with different materials by the same manner as described in Example <8-2>, followed by observation for 15 weeks, and then the number of mice having skin tumor was counted. Tumor development rate was presented as %.
The mouse induced with skin tumor by the same manner as described in Example <8-2> was treated with DMBA, and then the induced tumors were observed and weighed for 15 weeks to produce the average weight of tumor.

pIC50 [1]: 5.58
SMILES: Cc1c(/C=N/NC(=O)c2cc3c(ccc4ccccc43)o2)c2ccccc2n1CC#N [C, (E)-N′-((1-(cyanomethyl)-2-methyl-1H-indol-3-yl)methylene)naphtho[2,1-b]furan-2-carbohydrazide]

pIC50 [1]: 5.54
SMILES: O=C(N/N=C/c1ccc(-c2ccc([N+](=O)[O-])cc2)o1)c1cc2c(ccc3ccccc32)o1 [Compound F, (E)-N′-((5-(4-nitrophenyl)furan-2-yl)methylene)naphtho[2,1-b]furan-2-carbohydrazide]

pIC50 [1]: 5.65
SMILES: O=C(N/N=C/c1ccc(-c2ccc(Br)cc2)o1)c1cc2c(ccc3ccccc32)o1 [D]

pIC50 [1]: 5.58
SMILES: O=C(N/N=C/c1ccc(-c2cccc(Cl)c2Cl)o1)c1cc2c(ccc3ccccc32)o1 [E]

pIC50 [1]: 5.51
SMILES: Cc1ccc(-c2ccc(/C=N/NC(=O)c3cc4c(ccc5ccccc54)o3)o2)cc1[N+](=O)[O-] [G, (E)-N′-((5-(4-methyl-3-nitrophenyl)furan-2-yl)methylene)naphtho[2,1-b]furan-2-carbohydrazide]

pIC50 [1]: 5.27
SMILES: O=C(N/N=C/c1ccc([N+](=O)[O-])o1)c1cc2c(ccc3ccccc32)o1 [H, (E)-N′-((5-nitrofuran-2-yl)methylene)naphtho[2,1-b]furan-2-carbohydrazide]

pIC50 [1]: 5.44
SMILES: O=C(N/N=C/c1ccc(OCc2ccccc2)cc1)c1cc2c(ccc3ccccc32)o1 [I, (E)-N′-(4-(benzyloxy)benzylidene)naphtho[2,1-b]furan-2-carbohydrazide]

pIC50 [1]: 5.40
SMILES: COc1cccc(/C=N/NC(=O)c2cc3c(ccc4ccccc43)o2)c1O [J, (E)-N′-(2-hydroxy-3-methoxybenzylidene)naphtho[2,1-b]furan-2-carbohydrazide]

Continued, molecule first:

SMILES: Cc1c(/C=N/NC(=O)c2cc3c(ccc4ccccc43)o2)c2ccccc2n1C [A]
decrease of anti-proliferative activity compared with STK899704 [1]: two times decreased
pIC50 [1]: 6.36

SMILES: C=CCn1c(C)c(/C=N/NC(=O)c2cc3c(ccc4ccccc43)o2)c2ccccc21 [B, (E)-N′-((1-allyl-2-methyl-1H-indol-3-yl)methylene)naphtho[2,1-b]furan-2-carbohydrazide]
pIC50 [1]: 5.71

SMILES: COc1cccc2c1C(=O)c1c(O)c3c(c(O)c1C2=O)C[C@@](O)(C(=O)CO)C[C@@H]3O[C@H]1C[C@H](N)[C@H](O)[C@H](C)O1 [Doxorubicin]
pIC50 [2]: 5.48
pIC50 [3]: 2.42
resistance factor (number in the bracket) [3]: 1153
pIC50 [4]: 4.28
pIC50 [5]: 2.28
resistance factor (number in the bracket) [5]: 98

SMILES: CC(=O)O[C@H]1C(=O)[C@@]2(C)[C@H]([C@H](OC(=O)c3ccccc3)[C@]3(O)C[C@H](OC(=O)[C@H](O)[C@@H](NC(=O)c4ccccc4)c4ccccc4)C(C)=C1C3(C)C)[C@]1(OC(C)=O)CO[C@@H]1C[C@@H]2O [Taxol]
pIC50 [2]: 5.70
pIC50 [3]: 2.74
resistance factor (number in the bracket) [3]: 911
pIC50 [4]: 5.37
pIC50 [5]: 2.79
resistance factor (number in the bracket) [5]: 377
effect on microtubules and chromosomes (immunostaining) [6]: strengthened the polymerization of tubulin so that multi-polar spindle fibers with condensed chromosomes were produced

SMILES: COc1cc2c(c(OC)c1OC)-c1ccc(OC)c(=O)cc1[C@@H](NC(C)=O)CC2 [cholchicine, reference compound]
number of skin tumor ([7]; 500 nM in 0.2 ml acetone, local, 15 weeks): significantly reduced
weight of tumor compared with positive control ([7]; 15 weeks): significantly lighter
average volume of skin tumor reduced compared with positive control ([7]; 15 weeks, 500 nM local): 31.5%
decrease of average number of skin tumor compared with positive control ([7]; 15 weeks, 500 nM local): 2.86 times
week to which tumor formation was postponed ([7]; tumor of at least 2 mm, positive control from 8th week): 9 week

SMILES: COC(=O)Nc1nc2ccc(C(=O)c3cccs3)cc2[nH]1 [nocodazole, reference compound]
effect on microtubules and chromosomes (immunostaining) [6]: chromosomes were not fully condensed and microtubules were destroyed
